Experimental data as given in publication PMC6821791, “Phase I Trial of Pyragrel, a Novel Thromboxane Synthetase Inhibitor, to Evaluate the Safety, Tolerability, and Pharmacokinetics in Healthy Volunteers” (Frontiers in Pharmacology, 2019).

Experiments:
[1] = Part III multiple-dose study, plasma pharmacokinetics; type: in vivo, human; conditions: for Accumulation on repeated dose, in words: repeated dose of pyragrel 180 mg for 6 days (once- or twice-daily dosing)
Procedure: (§1) Pyragrel administration regimens are as follows: In the single-escalating-dose study (Part I), a total of 52 subjects are enrolled to receive one of three treatments (pyragrel, ozagrel, or placebo, diluted in 500 Ml normal saline) as a 3-h i.v. infusion. Six dose levels of pyragrel (30, 60,120, 180, 240, 300 mg) were intravenously infused to healthy subjects. Of the 12 subjects each at the first three dose groups (30, 60, and 120 mg), 8 received pyragrel, 2 received ozagrel (80 mg), and 2 received placebo. Eight subjects were assigned as 4/2/2 for pyragrel, ozagrel, and placebo at the 180 mg level. Only four subjects were enrolled at the 240- and 300-mg group each; all received pyragrel. […] In the saline-volume-changed study (Part II), the safety and pharmacokinetics of pyragrel were assessed by decreasing the volume of dilution saline. Four subjects received a single 3 h infusion of pyragrel 240 mg diluted in 250 ml saline instead of the 500 ml used in Part I. Blood samples were collected at multiple time points before and after the initiation of the infusion in Part I and Part II; 15 blood samples were predetermined as follows: before drug administration (time 0), 0.5, 1, 2, 3 (4 samples collected during infusion), 3.25, 3.5, 4, 5, 7, 9, 11, 15, 24, and 48 h (10 samples collected post infusion) after the initiation of the infusion. In the multiple-dose study (Part III), 12 subjects received a single 3 h infusion of 180 mg pyragrel (diluted in 250 ml saline) on Day 1 and Day 6 and twice 3 h infusion of 180 mg pyragrel from Day 2 to 5; 14 blood samples were collected on Day 1 and Day 6 before drug administration (0 h), 0.5, 1, 2, 3, 3.25, 3.5, 4, 5, 7, 9, 11, 15, 24 h after the initiation of the infusion; moreover, 5 ml cubital vein blood was collected each time right before pyragrel infusion on Day 2 to Day 5. In the 3×3 crossover study (Part IV), 12 subjects were randomized to receive each of the three dosing groups (60, 120, or 240 mg) of pyragrel (diluted with 250 ml saline, 3 h infusion) per period, with a 7-day washout period between doses. Sixteen blood samples were collected as follows: before drug administration (0 h), 0.17, 0.35, 0.5, 1, 2, 3, 3.25, 3.5, 4, 5, 7, 9, 11, 15, and 24 h after the initiation of the infusion at each period. In the prolonged infusion study (Part V), four subjects received continuous 24 h infusion of pyragrel 360 mg (diluted in 600 ml saline); 19 blood samples were collected as follows: before drug administration (0 h), 0.25, 0.5, 1, 2, 4, 8, 12, 16, 20 (nine samples collected during administration), 24.25, 24.5, 25, 26, 28, 30, 32, 36, and 48 h after the initiation of the infusion (details shown in Figure 1 ). In all five cohorts, 5 ml of cubital vein blood was collected with a sodium heparin anticoagulant tube and centrifuged at 3000 r·min^-1. Each plasma sample was divided into two aliquots and stored at −20°C until further bioanalysis. […] Briefly, 10 µl of the extract drug from […] was injected onto a Zorbax EcLipse XDB C18 column (2.1 mm × 150 mm, 5 μm) (Agilent, USA) using isocratic elution with a mobile phase composed of methanol, water, and formic acid (65:35:0.1, v/v/v). Determination of the analytes was achieved by tandem-mass spectrometry with positive electrospray ionization.
(§2) Pharmacokinetic parameters were calculated using the noncompartmental model (NCA module), WinNonlin 6.1 (Pharsight Corporation, Mountain View, CA, USA). Statistical analysis was performed with SPSS 18. The actual dosing and sampling times were utilized in the analysis. Pharmacokinetic parameters were summarized by dose regimens using descriptive statistics, including n, mean, and the coefficient of variation (CV). For Tmax, only n, min, median, and max were reported.

[2] = Part IV 3×3 crossover study, plasma pharmacokinetics; type: in vivo, human
Procedure: as §1, §2
In Part IV, a multivariate ANOVA model containing subjects, treatments (60, 120, or 240 mg), periods, and gender was used to analyze log-transformed Cmax and AUC. Tmax was analyzed using various related Friedman nonparametric tests.

[3] = Part V prolonged 24 h infusion study, plasma pharmacokinetics; type: in vivo, human; conditions: for AUCINF / AUClast / Cl / Cmax / Tmax / Vz / t1/2: continuous i.v. infusion of pyragrel 360 mg within 24 h, plasma, n=4, mean ± SD
Procedure: as §1, §2

[4] = Acute toxicity study in mice; type: in vivo
[5] = mice, daily 36 mg/kg injections for 4 days, cited from earlier work
[6] = system: human umbilical vein endothelial cells (HUVEC); conditions: in vitro; cited from earlier work
[7] = dog, in vivo; cited from earlier work
[8] = Preliminary pharmacodynamic studies of the metabolites; conditions: data not shown
Procedure: Based on the pharmacological activity, the pharmacokinetic characteristics of the metabolites were evaluated in the study.

[9] = Part III, multiple dose, 3-h infusions of pyragrel 180 mg for 6 days, plasma, n=12
[10] = Part III, single dose, 3-h infusion of pyragrel 180 mg, plasma, n=12
[11] = pyragrel 60 mg, 3 h infusion, plasma, n=12, mean ± SD
[12] = pyragrel 120 mg, 3 h infusion, plasma, n=12, mean ± SD
[13] = pyragrel 240 mg, 3 h infusion, plasma, n=12, mean ± SD
[14] = Part III, metabolite in plasma, multiple dose i.v. infusion of 180 mg pyragrel
[15] = metabolite in plasma, single dose of 180 mg pyragrel
[16] = metabolite in plasma after pyragrel 60 mg, n=12
[17] = metabolite in plasma after pyragrel 120 mg, n=12
[18] = metabolite in plasma after pyragrel 240 mg, n=12

For `COc1cc(C=CC(=O)[O-])ccc1OCc1nc(C)c(C)nc1C.[Na+]` [Pyragrel, sodium pyragrel], the AUCINF [1, 9] was 6,939.5 ± 2,072.8 h*µg·L^-1, the AUCTAU [1, 9] was 6,854.5 ± 2,062.7 h*µg·L^-1 and the AUClast [1, 9] was 6,909.9 ± 2066.8 h*µg·L^-1. For the same molecule, the Cl [1, 9] was 28.49 ± 8.49 L/h, the Cmax [1, 9] was 2,447.8 ± 825.3 µg·L^-1 and the Tmax [1, 9] was 2.42 ± 0.67 h. The t1/2 [1, 9] was 6.51 ± 2.73 h, the Cmin ([1]; Part III, pyragrel 180 mg, printed in column Single dose, footnote a: steady-state trough concentration, n=12) was 4.22 ± 2.26^a µg·L^-1 and the Cavg ([1]; Part III, pyragrel 180 mg, printed in column Single dose, footnote b: steady-state peak concentration, n=12) was 571.2 ± 171.9^b µg·L^-1. For the same molecule, the AUCINF [1, 10] was 6,680.3 ± 1,668.0 h*µg·L^-1, the AUClast [1, 10] was 6,663.3 ± 1665.7 h*µg·L^-1 and the Cl [1, 10] was 28.85 ± 8.75 L/h. For the same molecule, the Tmax [1, 10] was 2.83 ± 0.39 h, the Vz [1, 10] was 226.0 ± 141.7 L and the t1/2 [1, 10] was 5.12 ± 1.91 h. For the same molecule, the Cmax ([1]; Part III, single dose, 3-h infusion of pyragrel 180 mg, plasma, n=12, footnote c: steady-state average concentration) was 2,311.9 ± 514.4^c µg·L^-1, the “Accumulation on repeated dose, in words” value [1] was “no accumulation” and the AUCINF [2, 11] was 2,003.8 ± 318.7 h*µg·L^-1. The AUClast [2, 11] was 1,990.8 ± 317.9 h*µg·L^-1, the Cl [2, 11] was 30.65 ± 4.91 L/h and the Cmax [2, 11] was 641.2 ± 107.8 ng/mL. The Tmax [2, 11] was 2.75 ± 0.45 h, the Vz [2, 11] was 184.5 ± 80.37 L and the t1/2 [2, 11] was 4.28 ± 1.84 h. The AUCINF [2, 12] was 4,325.2 ± 541.5 h*µg·L^-1, the AUClast [2, 12] was 4,317.4 ± 541.1 h*µg·L^-1 and the Cl [2, 12] was 28.18 ± 3.83 L/h. The Cmax [2, 12] was 1505.6 ± 178.7 ng/mL, the Tmax [2, 12] was 2.58 ± 0.51 h and the Vz [2, 12] was 197.6 ± 77.76 L. The t1/2 [2, 12] was 4.82 ± 1.63 h, the AUCINF [2, 13] was 9,292.8 ± 1,468.0 h*µg·L^-1 and the AUClast [2, 13] was 9,279.1 ± 1,466.3 h*µg·L^-1. For the same molecule, the Cl [2, 13] was 26.45 ± 4.34 L/h, the Cmax [2, 13] was 3165.7 ± 426.4 ng/mL and the Tmax [2, 13] was 2.92 ± 0.29 h. For the same molecule, the Vz [2, 13] was 194.3 ± 72.28 L, the t1/2 [2, 13] was 5.06 ± 1.58 h and the “Plasma concentration remaining, fraction of Cmax” value ([3]; at 4 h post-infusion) was 1/20. The AUCINF [3] was 14,995 ± 2,494 h*µg·L^-1, the AUClast [3] was 14,984 ± 2,497 h*µg·L^-1 and the Cl [3] was 24.47 ± 3.75 L/h. It also gave a Cmax [3] of 861.7 ± 155.1 ng/mL, a Tmax [3] of 14.00 ± 7.66 h and a Vz [3] of 260.2 ± 144.4 L. For the same molecule, the t1/2 [3] was 7.05 ± 3.74 h, the AUCINF ([3]; listed as pyragrel) was 14,994.57 ± 2,493.9 h*µg·L^-1 and the AUClast ([3]; listed as pyragrel) was 14,984.40 ± 2,496.64 h*µg·L^-1. The Cmax ([3]; listed as pyragrel) was 861.67 ± 155.05 ng/mL, the LD50 [4] was 929.7 mg/kg and the “Bleeding time, lower than with ozagrel” value ([5]; P < 0.01) was 35%. The “Prolongation of coagulation time, pyragrel vs ozagrel” value [5] was “comparable”, the “Effect against inflammatory induced HUVEC injury” value [6] was “significant protective effects” and the Maximum safe dose [7] was > 12.5 mg/kg/day.
`COc1cc(CCC(=O)O)ccc1OCc1nc(C)c(C)nc1C` [BBS] showed an AUCINF [1, 14] of 7027.46 ± 3017.92 µg·h/L, an AUClast [1, 14] of 6797.36 ± 2919.19 µg·h/L and a Cl [1, 14] of 35.50 ± 18.33 L/h. For the same molecule, the Cmax [1, 14] was 1356.91 ± 564.13 µg/L, the Tmax [1, 14] was 3.19 ± 0.11 h and the Vz [1, 14] was 152.37 ± 94.36 L. The t1/2 [1, 14] was 6.07 ± 2.11 h, the R ([1]; Part III, metabolite, multiple vs single dose of 180 mg pyragrel, footnote d not given) was 1.27 ± 0.13 and the AA ([1]; Part III, metabolite, multiple vs single dose of 180 mg pyragrel, footnote e not given) was 1.13 ± 0.24. The AUCINF [1, 15] was 6145.79 ± 2339.86 µg·h/L, the AUClast [1, 15] was 6022.22 ± 2291.72 µg·h/L and the Cl [1, 15] was 36.52 ± 23.08 L/h. The Cmax [1, 15] was 1324.23 ± 447.99 µg/L, the Tmax [1, 15] was 3.25 ± 0.15 h and the Vz [1, 15] was 285.61 ± 221.29 L. The t1/2 [1, 15] was 5.31 ± 1.42 h, the “Accumulation on repeated dose, in words” value [1] was “no accumulation” and the AUCINF [2, 16] was 1882.93 ± 534.37 µg·h/L. For the same molecule, the AUClast [2, 16] was 1821.9 ± 496.75 µg·h/L, the Cl [2, 16] was 34.77 ± 11.33 L/h and the Cmax [2, 16] was 373.16 ± 101.22 ng/mL. It also gave a Tmax [2, 16] of 3.29 ± 0.18 h, a Vz [2, 16] of 261.4 ± 115.98 L and a t1/2 [2, 16] of 5.12 ± 1.17 h. It also gave an AUCINF [2, 17] of 4036.27 ± 1186.62 µg·h/L, an AUClast [2, 17] of 3969.83 ± 1184.3 µg·h/L and a Cl [2, 17] of 32.54 ± 10.86 L/h. For the same molecule, the Cmax [2, 17] was 837.84 ± 228.5 ng/mL, the Tmax [2, 17] was 3.27 ± 0.17 h and the Vz [2, 17] was 250.94 ± 149.96 L. The t1/2 [2, 17] was 5.08 ± 1.38 h, the AUCINF [2, 18] was 9572.13 ± 3748.80 µg·h/L and the AUClast [2, 18] was 9440.71 ± 3717.86 µg·h/L. For the same molecule, the Cl [2, 18] was 30.04 ± 16.36 L/h, the Cmax [2, 18] was 2041.56 ± 684.12 ng/mL and the Tmax [2, 18] was 3.25 ± 0.18 h. For the same molecule, the Vz [2, 18] was 212.93 ± 126.27 L, the AUCINF [3] was 11,533 ± 3,946 h*µg·L^-1 and the AUClast [3] was 11,500 ± 3,952 h*µg·L^-1. The Cl [3] was 34.11 ± 11.36 L/h, the Cmax [3] was 566.1 ± 195.0 ng/mL and the Tmax [3] was 18.06 ± 4.13 h. The Vz [3] was 234.4 ± 89.53 L, the t1/2 [3] was 4.74 ± 0.65 h and the LD50 [4] was > 929.7 mg/kg. The “Antiplatelet and antithrombotic effects” value [8] was “weak”.
